These compounds were tested against T1, chimeric human H3 receptor (Homo sapiens, UniProt Q9Y5N1) (assay: Chimeric human H3 receptor GTP binding assay (agonist-stimulated GTP-gamma35S binding, Example 7)). Details: Table II "Ki", symbol *; assay of Example 7.
T1 construct: made in house; host or cells: Sf9 insect cells (baculovirus); P2 membrane preparation
Assay type: biochemical
Source text: This Example illustrates a representative assay for evaluating agonist-stimulated GTP-gamma^35S binding (“GTP binding”) activity. […] This agonist-stimulated GTP binding activity can also be used to detect partial agonism mediated by antagonist compounds. A compound analyzed in this assay is referred to herein as a “test compound.”
Four independent baculoviral stocks (one directing the expression of the chimeric human H3 receptor and three directing the expression of each of the three subunits of a heterotrimeric G-protein) are used to infect a culture of Sf9 cells as described above. P2 membranes are prepared as described above, and agonist-stimulated GTP binding on the P2 membranes is assessed using histamine (Sigma Chemical Co., St. Louis, Mo.) as agonist in order to ascertain that the receptor/G-protein-alpha-beta-gamma combination(s) yield a functional response as measured by GTP binding. P2 membranes are resuspended by Dounce homogenization (tight pestle) in GTP binding assay buffer (50 mM Tris pH 7.4, 120 mM NaCl, 5 mM MgCl2, 2 mM EGTA, 1 mg/ml BSA, 0.2 mg/ml bacitracin, 0.02 mg/ml aprotinin, 0.01 mg/ml saponin, 10 μM GDP) and added to assay tubes at a concentration of 35 μg protein/reaction tube. After adding increasing doses of histamine at concentrations ranging from 10^−12 M to 10^−5 M, reactions are initiated by the addition of […] GTP-gamma^35S (PERKIN ELMER; Boston, Mass.) with a final assay volume of 0.20 ml. In competition experiments, non-radiolabeled test compounds are added to separate reactions at concentrations ranging from 10^−10 M to 10^−6 M along with 1 μM histamine to yield a final volume of 0.20 ml.
Neutral antagonists are antagonists that are substantially free of inherent agonist activity, and include those test compounds that reduce the histamine-stimulated GTP binding activity towards, but not below, baseline levels. In contrast, in the absence of added histamine, inverse agonists reduce the GTP binding activity of the receptor-containing membranes below baseline.
After a 60-min incubation at room temperature, reactions are terminated by vacuum filtration over WHATMAN GF/C filters (pre-soaked in wash buffer, 0.1% BSA) followed by washing with ice-cold wash buffer (50 mM Tris pH 7.4, 120 mM NaCl). The amount of receptor-bound (and thereby membrane-bound) GTP-gamma^35S is determined by measuring the filter-bound radioactivity, preferably by liquid scintillation spectrometry of the washed filters. Non-specific binding is determined in parallel assays including 10 μM unlabeled GTP-gammaS and typically represents less than 5 percent of total binding. Data is expressed as percent above basal (baseline). The results of GTP binding experiments are analyzed using SIGMAPLOT software (SPSS Inc., Chicago, Ill.). IC50 values are calculated by non-linear regression analysis of dose-response curves using Kaleidograph (Synergy Software, Reading, Pa.).
Alternatively the data is analyzed as follows. First, the average bound radioactivity from negative control wells (no agonist) is subtracted from the bound radioactivity detected for each of the other experimental wells. Second, average bound radioactivity is calculated for the positive control wells (agonist wells). Then, percent inhibition for each compound tested is calculated using the equation:
Calculated IC50 values are converted to K1 values by the Cheng-Prusoff correction (Cheng and Prusoff (1973) Biochem. Pharmacol. 22(23):3099-3108). Accordingly, the following equation: Ki=IC50/(1+[L]/EC50) is used, where [L] is the histamine concentration in the GTP binding assay, and EC50 is the concentration of histamine producing a 50% response, as determined by a dose-response analysis using concentrations of histamine ranging from 10^−10 M to 10^−6M. […]

T1 sequence (Q9Y5N1 with tags, fused parts or gaps): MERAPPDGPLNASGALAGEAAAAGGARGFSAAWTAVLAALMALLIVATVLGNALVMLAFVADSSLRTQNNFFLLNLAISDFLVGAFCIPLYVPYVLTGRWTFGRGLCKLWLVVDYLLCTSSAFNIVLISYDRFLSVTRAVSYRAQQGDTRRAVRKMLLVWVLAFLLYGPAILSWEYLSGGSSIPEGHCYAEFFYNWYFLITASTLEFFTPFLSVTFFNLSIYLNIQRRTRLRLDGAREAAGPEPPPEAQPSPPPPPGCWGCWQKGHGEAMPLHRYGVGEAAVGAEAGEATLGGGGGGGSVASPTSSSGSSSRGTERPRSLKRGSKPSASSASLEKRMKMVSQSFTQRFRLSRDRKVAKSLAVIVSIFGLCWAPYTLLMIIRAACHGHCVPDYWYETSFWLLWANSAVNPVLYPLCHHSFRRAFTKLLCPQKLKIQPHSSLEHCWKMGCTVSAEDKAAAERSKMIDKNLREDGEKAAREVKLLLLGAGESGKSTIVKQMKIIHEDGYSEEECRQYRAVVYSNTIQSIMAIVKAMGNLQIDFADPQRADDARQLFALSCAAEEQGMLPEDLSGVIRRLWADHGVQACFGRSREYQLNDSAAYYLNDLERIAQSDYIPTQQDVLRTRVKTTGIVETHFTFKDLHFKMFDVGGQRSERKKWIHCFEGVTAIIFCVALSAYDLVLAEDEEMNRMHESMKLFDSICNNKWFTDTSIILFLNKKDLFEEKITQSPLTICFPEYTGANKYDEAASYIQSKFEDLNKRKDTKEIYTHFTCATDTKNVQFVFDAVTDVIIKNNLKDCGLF

Question: CC1CCCC1N1CCN(C(=O)CN2CCc3cc(-c4cncnc4)ccc3C2)CC1 (centres unmarked) [Compound 613, 2-{2-[4-(2-methylcyclopentyl)piperazin-1-yl]-2-oxoethyl}-6-pyrimidin-5-yl-1,2,3,4-tetrahydroisoquinoline] was tested. Which Ki did it give?
Answer: < 1000 nM

Question: COCCCNc1ccc2c(n1)CCN(CC(=O)N1CCN(C3CCC3)CC1)C2 [Compound 664, 6-[2-(4-cyclobutylpiperazin-1-yl)-2-oxoethyl]-N-(3-methoxypropyl)-5,6,7,8-tetrahydro-1,6-naphthyridin-2-amine] was tested. Which Ki did it give?
Answer: < 1000 nM

Question: Which Ki does the source give for C[C@H]1CN(C(=O)CN2CCc3cc(-c4cncnc4)ccc3C2)CCN1C1CCCC1 [Compound 610, 2-{2-[(3S)-4-cyclopentyl-3-methylpiperazin-1-yl]-2-oxoethyl}-6-pyrimidin-5-yl-1,2,3,4-tetrahydroisoquinoline] here?
Answer: < 1000 nM

Question: For O=C(CN1CCc2cc(-c3ccc(C(F)(F)F)nc3)ccc2C1)N1CCN(C2CCC2)CC1 [Compound 648, 2-[2-(4-cyclobutylpiperazin-1-yl)-2-oxoethyl]-6-[6-(trifluoromethyl)pyridin-3-yl]-1,2,3,4-tetrahydroisoquinoline], which Ki is on record?
Answer: < 1000 nM

Same assay, conditions: Table II; "*" = Ki in assay of Example 7 less than 1 micromolar

Question: With CNC(=O)c1ccc2c(c1)CCN(CC(=O)N1CCN(C3CCC3)CC1)C2 [Compound 85, 2-[2-(4-cyclobutylpiperazin-1-yl)-2-oxoethyl]-N-methyl-1,2,3,4-tetrahydroisoquinoline-6-carboxamide] as the compound, how does the Ki read?
Answer: < 1000 nM

Question: NC(=O)c1cnn(-c2ccc3c(c2)CCN(CC(=O)N2CCN(C4CCC4)CC2)C3)c1 [Compound 243, 1-{2-[2-(4-cyclobutylpiperazin-1-yl)-2-oxoethyl]-1,2,3,4-tetrahydroisoquinolin-6-yl}-1H-pyrazole-4-carboxamide] was tested. Which Ki did it give?
Answer: < 1000 nM

Question: With CC(C)N1CCN(C(=O)CN2CCc3[nH]c(=O)ccc3C2)CC1 [Compound 135, 6-[2-(4-isopropylpiperazin-1-yl)-2-oxoethyl]-5,6,7,8-tetrahydro-1,6-naphthyridin-2(1H)-one] as the compound, how does the Ki read?
Answer: < 1000 nM

Question: Which Ki does the source give for O=C(CN1CCc2cc(-n3cc4ccccc4n3)ccc2C1)N1CCN(C2CCC2)CC1 [Compound 229, 2-[2-(4-cyclobutylpiperazin-1-yl)-2-oxoethyl]-6-(2H-indazol-2-yl)-1,2,3,4-tetrahydroisoquinoline] here?
Answer: < 1000 nM

Question: With O=C(CN1CCc2nc(-n3cccn3)ncc2C1)N1CCN(C2CCC2)CC1 [Compound 275, 6-[2-(4-cyclobutylpiperazin-1-yl)-2-oxoethyl]-2-(1H-pyrazol-1-yl)-5,6,7,8-tetrahydropyrido[4,3-d]pyrimidine] as the compound, how does the Ki read?
Answer: < 1000 nM

Question: For O=C(CN1CCc2nccnc2C1)N1CCN(C2CCC2)CC1 [Compound 228, 6-[2-(4-cyclobutylpiperazin-1-yl)-2-oxoethyl]-5,6,7,8-tetrahydropyrido[3,4-b]pyrazine], which Ki is on record?
Answer: < 1000 nM

Question: Which Ki does the source give for O=C(CN1CCc2n[nH]cc2C1)N1CCN(C2CCC2)CC1 [Compound 91, 5-[2-(4-cyclobutylpiperazin-1-yl)-2-oxoethyl]-4,5,6,7-tetrahydro-2H-pyrazolo[4,3-c]pyridine] here?
Answer: < 1000 nM

Question: Which Ki does the source give for O=C(CN1CCc2nn(-c3cncnc3)cc2C1)N1CCN(C2CCC2)CC1 [Compound 252, 5-[2-(4-cyclobutylpiperazin-1-yl)-2-oxoethyl]-2-pyrimidin-5-yl-4,5,6,7-tetrahydro-2H-pyrazolo[4,3-c]pyridine] here?
Answer: < 1000 nM

Question: With O=C(CN1CCc2nc(-n3cccc3)ccc2C1)N1CCN(C2CCC2)CC1 [Compound 227, 6-[2-(4-cyclobutylpiperazin-1-yl)-2-oxoethyl]-2-(1H-pyrrol-1-yl)-5,6,7,8-tetrahydro-1,6-naphthyridine] as the compound, how does the Ki read?
Answer: < 1000 nM

Same assay, conditions: assay of Example 7; "*" in Ki of Table II

Question: Which Ki does the source give for Cc1cnc(-n2cc3c(n2)CCN(CC(=O)N2CCN(C4CCC4)CC2)C3)nc1 [Compound 289, 5-[2-(4-cyclobutylpiperazin-1-yl)-2-oxoethyl]-2-(5-methylpyrimidin-2-yl)-4,5,6,7-tetrahydro-2H-pyrazolo[4,3-c]pyridine] here?
Answer: < 1000 nM

Reference: US20110082130A1 (LIGAND PHARMACEUTICALS, INC., priority 2006, published 2011)
